Test results published in ChEMBL document CHEMBL3046431, “Novel 4H-1,2,4-triazol-3-yl cycloalkanols as potent antitubercular agents” (Med Chem Res, 2013).
≈ marks a conversion by molar mass, not a printed value.

How the values were obtained:
[1] = Selectivity index, ratio of CC50 for african green monkey Vero C1008 cells to MIC for Mycobacterium tuberculosis H37Rv; type: toxicity, cell-based; conditions: read-out: Selectivity Index
[2] = Cytotoxicity against Chlorocebus aethiops (African green monkey) Vero C1008 cells assessed as cell viability after 72 hr by MTT assay; type: cell-based; conditions: chlorocebus sabaeus
[3] = tested on: Mycobacterium tuberculosis; assay: Antitubercular activity against Mycobacterium tuberculosis H37Rv assessed as growth inhibition after 7 days by resazurin microplate assay; type: functional; conditions: 168 h

Row | SMILES | selectivity ratio [1] | CC50 at 72 h [2] [mg/L] | MIC [3] [mg/L]
1 | Cc1csc(-c2nnc(C3(O)C4CC5CC(C4)CC3C5)[nH]2)c1 (stereo unspecified) | 84 | 356 (≈ 1130 µM) | 4.25 (≈ 13.5 µM)
2 | CC1CCC(O)(c2nnc(-c3ccncc3)[nH]2)CC1 (stereo unspecified) | 424 | 403 (≈ 1560 µM) | 0.95 (≈ 3.68 µM)
3 | CC1CCC(O)(c2nnc(-c3ccccc3)[nH]2)CC1 (stereo unspecified) | 28 | 437 (≈ 1700 µM) | 15.5 (≈ 60.2 µM)
4 | Cc1nnc(C2(O)CCCCC2)[nH]1 | 63 | 392 (≈ 2160 µM) | 6.25 (≈ 34.5 µM)
5 | Cc1nnc(C2(O)CC(C)CC(C)(C)C2)[nH]1 (stereo unspecified) | 84 | 380 (≈ 1700 µM) | 4.5 (≈ 20.2 µM)
6 | Cc1nnc(C(O)C2CC=CCC2)[nH]1 (stereo unspecified) | 62 | 318 (≈ 1650 µM) | 5.15 (≈ 26.6 µM)
7 | Cc1nnc(C(O)C2CCC(O)C(O)C2)[nH]1 (stereo unspecified) | 116 | 378 (≈ 1660 µM) | 3.25 (≈ 14.3 µM)
8 | Oc1ccc(-c2nnc(C3(O)CCCC3)[nH]2)cc1 | 108 | 347 (≈ 1410 µM) | 3.2 (≈ 13 µM)
9 | OC1(c2nnc(-c3ccncc3)[nH]2)CCCC1 | 490 | 382 (≈ 1660 µM) | 0.78 (≈ 3.39 µM)
10 | OC1(c2nnc(-c3ccccc3)[nH]2)CCCCC1 | 34 | 422 (≈ 1730 µM) | 12.4 (≈ 50.8 µM)
11 | Oc1ccc(-c2nnc(C3(O)CCCCC3)[nH]2)cc1 | 45 | 340 (≈ 1310 µM) | 7.5 (≈ 28.9 µM)
12 | OC1(c2nnc(-c3ccncc3)[nH]2)CCCCC1 | 698 | 412 (≈ 1690 µM) | 0.59 (≈ 2.42 µM)
13 | OC1(c2nnc(-c3cccnc3)[nH]2)CCCCC1 | 88 | 397 (≈ 1630 µM) | 4.5 (≈ 18.4 µM)
14 | Cc1csc(-c2nnc(C3(O)CCCCC3)[nH]2)c1 | 226 | 373 (≈ 1420 µM) | 1.65 (≈ 6.27 µM)
15 | CC1CC(C)(C)CC(O)(c2nnc(-c3ccccc3)[nH]2)C1 (stereo unspecified) | 25 | 383 (≈ 1340 µM) | 15.4 (≈ 53.8 µM)
16 | CC1CC(C)(C)CC(O)(c2nnc(-c3ccc(O)cc3)[nH]2)C1 (stereo unspecified) | 33 | 352 (≈ 1170 µM) | 10.5 (≈ 34.8 µM)
17 | CC1CC(C)(C)CC(O)(c2nnc(-c3ccncc3)[nH]2)C1 (stereo unspecified) | 637 | 414 (≈ 1450 µM) | 0.65 (≈ 2.27 µM)
18 | CC1CC(C)(C)CC(O)(c2nnc(-c3cccnc3)[nH]2)C1 (stereo unspecified) | 29 | 368 (≈ 1290 µM) | 12.5 (≈ 43.6 µM)
19 | OC(c1nnc(-c2ccccc2)[nH]1)C1CC=CCC1 (stereo unspecified) | 29 | 358 (≈ 1400 µM) | 12.5 (≈ 49 µM)
20 | OC(c1nnc(-c2ccncc2)[nH]1)C1CC=CCC1 (stereo unspecified) | 310 | 388 (≈ 1510 µM) | 1.25 (≈ 4.88 µM)
21 | OC(c1nnc(-c2cccnc2)[nH]1)C1CC=CCC1 (stereo unspecified) | 44 | 371 (≈ 1450 µM) | 8.5 (≈ 33.2 µM)
22 | OC1CCC(C(O)c2nnc(-c3ccccc3)[nH]2)CC1O (stereo unspecified) | 55 | 429 (≈ 1480 µM) | 7.75 (≈ 26.8 µM)
23 | OC1CCC(C(O)c2nnc(-c3ccncc3)[nH]2)CC1O (stereo unspecified) | 477 | 429 (≈ 1480 µM) | 0.9 (≈ 3.1 µM)
24 | NNC(=O)c1ccncc1 [ISONIAZID] | 499 | – | 0.4 (≈ 2.92 µM)
